# Reference: patent publication US20160046573A1, “IDENTIFYING PATIENT RESPONSE TO S1P RECEPTOR MODULATOR ADMINISTRATION” (Novartis AG, priority 2013, published 2016)
# Experiments:
# CYP1A1 = molecular target: T1, CYP1A1 (Homo sapiens, UniProt P04798); assay: Enzyme mapping: metabolite formation by recombinant P450 isoenzyme; type: in vitro ADME; conditions: 30 pmol/mL, 30 min
# T1 construct: purchased BD Biosciences 456211; host or cells: baculovirus infected insect cells (BTI-TN-5B1-4)
# T1 sequence (P04798 1-512): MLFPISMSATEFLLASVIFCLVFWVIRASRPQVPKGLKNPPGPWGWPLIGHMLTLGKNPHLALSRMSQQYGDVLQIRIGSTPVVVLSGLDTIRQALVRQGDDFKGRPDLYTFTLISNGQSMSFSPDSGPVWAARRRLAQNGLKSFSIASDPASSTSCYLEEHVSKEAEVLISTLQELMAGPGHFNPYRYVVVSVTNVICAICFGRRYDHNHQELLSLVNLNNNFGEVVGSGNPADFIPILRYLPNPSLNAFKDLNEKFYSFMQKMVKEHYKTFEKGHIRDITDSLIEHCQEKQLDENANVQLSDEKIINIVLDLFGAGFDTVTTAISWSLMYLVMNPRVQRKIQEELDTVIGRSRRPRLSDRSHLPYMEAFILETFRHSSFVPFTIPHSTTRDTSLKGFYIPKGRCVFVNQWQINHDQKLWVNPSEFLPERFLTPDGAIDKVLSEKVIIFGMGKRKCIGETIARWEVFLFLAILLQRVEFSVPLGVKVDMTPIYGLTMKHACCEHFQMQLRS
# Description: (§1) Microsomes prepared from baculovirus infected insect cells (BTI-TN-5B1-4) expressing the following human P450 enzymes and the insect cell membrane preparations (negative control) were obtained from BD Biosciences (Woburn, Mass., USA).
# (§2) The final concentrations are given in parentheses.
# (§3) After 30 min at −80° C. […] The supernatant was withdrawn. […] Sample solutions were analyzed by HPLC combined with radiodetection. (for HLPC method, see Section 1.6)
# (§4) Mean specific CYP enzyme concentrations in human liver microsomes were obtained from literature values (Rowland Yeo K, Rostami-Hodjegan A and Trucker GT (2004)] Abundance of cytochromes P450 in human liver: a meta-analysis. Br. J. Clinical Pharmacology; 57:687-688). For some recombinant human CYPs, the enzyme kinetic parameters were estimated by calculation assuming Michaelis-Menten type behavior for the two concentrations used, solving a linear equation system for 2 linear equations with 2 variables: […]
# (§5) Microsomes prepared from baculovirus infected insect cells (BTI-TN-5B1-4) expressing one single human cytochrome P450 isoenzyme were used to assess the involvement of specific enzymes in the biotransformation of [14C]BAF312. Incubation experiments with a panel of 21 recombinant human CYPs (CYP1A1, 1A2, 1B1, 2A6, 2B6, 2C8, 2C9*1, 2C18, 2C19, 2D6*1, 2E1, 2J2, 3A4, 3A5, 3A7, 4A11, 4F2, 4F3A, 4F3B, 4F12 and CYP19) were conducted under similar conditions for each isoenzyme with 10 and 40 μM BAF312 incubation and 30 pmol CYP/mL for 30 min. […] Lower metabolism activities were also observed in incubation with CYP3A4, while some trace metabolism was detected with other CYP isoenzymes (2B6, 2C8, 2C19, 2J2, 3A5, 1A1).
# CYP2C19 = molecular target: T2, CYP2C19 (Homo sapiens, UniProt P33261); assay: as above; type: in vitro ADME; conditions: for Metabolism Rate: 30 pmol/mL, 30 min
# T2 construct: purchased BD Biosciences 456259; host or cells: baculovirus infected insect cells (BTI-TN-5B1-4)
# T2 sequence (P33261 whole entry): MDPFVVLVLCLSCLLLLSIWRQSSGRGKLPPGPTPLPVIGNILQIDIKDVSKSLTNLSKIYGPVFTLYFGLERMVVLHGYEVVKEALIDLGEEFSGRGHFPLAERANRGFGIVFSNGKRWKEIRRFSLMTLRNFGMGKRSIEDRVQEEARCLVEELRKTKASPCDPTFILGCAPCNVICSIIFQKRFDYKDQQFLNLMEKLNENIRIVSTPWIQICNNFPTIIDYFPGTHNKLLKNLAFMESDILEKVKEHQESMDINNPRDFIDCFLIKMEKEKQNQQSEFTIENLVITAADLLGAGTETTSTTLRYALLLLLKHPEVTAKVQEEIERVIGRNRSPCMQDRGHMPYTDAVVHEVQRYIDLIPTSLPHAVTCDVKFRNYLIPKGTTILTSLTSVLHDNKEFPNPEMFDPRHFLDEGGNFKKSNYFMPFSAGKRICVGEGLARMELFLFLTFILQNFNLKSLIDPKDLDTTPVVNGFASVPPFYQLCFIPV
# Description: as §1, §2, §3, §4, §5
smiles,measurement,setting,value
"CCc1cc(/C(C)=N/OCc2ccc(C3CCCCC3)c(C(F)(F)F)c2)ccc1CN1CC(C(=O)O)C1 [BAF312, 1-{4-[1-(4-cyclohexyl-3-trifluoromethyl-benzyloxyimino)-ethyl]-2-ethyl-benzyl}-azetidine-3-carboxylic acid]",Metabolism Rate,CYP1A1; 10 μM BAF312,13.3 pmol/min/nmol CYP 450
same,Metabolism Rate,CYP1A1; 40 μM BAF312,28.9 pmol/min/nmol CYP 450
same,Metabolism Rate,CYP2C19; 10 μM BAF312,6.7 pmol/min/nmol CYP 450
same,Metabolism Rate,CYP2C19; 40 μM BAF312,22.2 pmol/min/nmol CYP 450
same,Contribution (% total Rel. CL),"CYP2C19; CYP 2C19, metabolic clearance in human liver microsomes",0.1%
same,Rel. CL,"CYP2C19; CYP 2C19, relative to abundance in human liver microsomes",0.02 μl/(min · nmol total CYP)
